For data set [1], the system named is KG-1 cells. Briefly: MTT assay, cell viability of KG-1 cells. The conditions noted are these: Homo sapiens, 48 h, mean ± s.d., n = 3, read-out: IC50 values of compounds for leukemia cells. It counts as cell-based.
Data set [2] concerns THP-1 cells. Put plainly: MTT assay, cell viability of THP-1 cells. It counts as cell-based. As to conditions: Homo sapiens, 48 h, mean ± s.d., n = 3, read-out: IC50 values of compounds for leukemia cells. (In general: Formazan colour is commonly taken as a measure of viable cells.)
Data set [3] deals with HL-60 cells. Briefly: MTT assay, cell viability of HL-60 cells. It counts as cell-based. The conditions noted are these: Homo sapiens, 48 h, mean ± s.d., n = 3, read-out: IC50 values of compounds for leukemia cells.
Data set [4] addresses T1, human recombinant Abl (Homo sapiens, UniProt P00519).
T1 construct: purchased Eurofins Pharma Discovery Services (UK Limited); host or cells: insect cells
Briefly: Radiometric Abl kinase assay. The data set is classed as biochemical. As to conditions: compared with imatinib. Here is the method: (§1) Inhibition by the hybrids on the ATPase activities of Hsp70 and Hsp90 was determined by using a PiColorLock assay and on the kinase activity of Abl by using a radiometric assay.
Abl kinase assays. Abl kinase assays were conducted by Eurofins Pharma Discovery Services (UK Limited). Briefly, each compound was pre-incubated with 0.25 µg/mL of human recombinant Abl (expressed in insect cells) in 20 mM MOPS containing 1 mM EDTA, 0.01% Brij-35, 5% glycerol, 0.1% β-mercaptoethanol and 1 mg/mL BSA for 15 min at 37 °C. To the enzyme mixture was added 0.2 mg/mL of poly(Glu:Tyr), 10 µM ATP and 0.25 µCi [γ^33P]ATP. After incubation for 30 min, 3% H3PO4 was added to the mixture to stop enzyme reactions. An aliquot was removed and counted to determine the amount of [^33P]poly(Glu:Tyr) formed by using a Trilux scintillation counter (Wallac Microbeta 12-detector model, Perkin Elmer).
Supplementary Figure S10. Inhibitory effect of hybrid molecules on Hsp70, Hsp90 and Abl activities. (a) ATPase activity of Hsp70 was measured by using a Pi-Colorlock assay after incubation of an ATPase domain of Hsp70 with various concentrations of indicated molecules and 10 µM ATP (mean ± s.d., n =3). (b) ATPase activity of Hsp90 was measured by using a Pi-Colorlock assay after incubation of Hsp90 with various concentrations of indicated molecules and 1 mM ATP (mean ± s.d., n = 3). […]

The subject of data set [5] is Jurkat cells. Briefly: MTT assay, cell viability of Jurkat cells. The data set is classed as cell-based. As to conditions: Homo sapiens, 48 h, mean ± s.d., n = 3, read-out: IC50 values of compounds for leukemia cells.
For data set [6], the system named is U937 cells. Briefly: MTT assay, cell viability of U937 cells. The data set is classed as cell-based. As to conditions: Homo sapiens, U-937, 48 h, mean ± s.d., n = 3, read-out: IC50 values of compounds for leukemia cells.
For data set [7], the system named is K562 cells. Briefly: MTT assay, cell viability of K562 cells. It counts as cell-based. The conditions noted are these: Homo sapiens, 48 h, mean ± s.d., n = 3, read-out: IC50 values of compounds for leukemia cells.
Data set [8] has as its system human leukemia cells (HL-60, KG-1, THP-1, U937, Jurkat and K562 cells). Put plainly: MTT assay, all tested leukemia cells (summary statements). The conditions noted are these: all tested leukemia cells, MTT, compared with Az, GD and imatinib. Here is the method: To assess anti-leukemia activity of Az, several human leukemia cells (HL-60 cells, acute myeloid leukemia; Jurkat cells, acute T-lymphocytic leukemia; KG-1 cells, acute myeloid leukemia; U937 cells, acute myeloid leukemia; THP-1 cells, acute monocytic leukemia; K562 cells, chronic myeloid leukemia) were incubated with Az for 48 h. […] An MTT assay was then performed to measure cell viabilities.
Cells were exposed to each compound (a HCl salt form) at various concentrations for indicated time periods (24 or 48 h) in culture media. MTT assays were conducted according to known procedures. The absorbance at 570 nm was determined by employing a microplate reader (TECAN, Infinite® 200 PRO).

Data set [9] has as its target T2, ATPase domain of Hsp70 (Homo sapiens, UniProt P0DMV8).
T2 construct: mixed with 2 µg of an ATPase domain of Hsp70
Briefly: PiColorLock ATPase assay, Hsp70. As to conditions: 10, 20 and 40 µM compound, 10 µM ATP, compared with Az. The data set is classed as biochemical. Here is the method:
as §1
ATPase assays. ATPase assays were conducted in 20 mM Tris-HCl, 10 mM MgCl2 and 100 mM KCl buffer solution mixed with 2 µg of an ATPase domain of Hsp70. Each compound (10, 20 and 40 µM) was added to the protein solution in a 96-well plate. After the mixture was placed in the plate for 30 min at room temperature, 10 µM ATP was added to the mixture and the mixture was incubated for 3 h at 37 °C. To measure ATPase activity, 10 µl of a 1:100 mixture of PiColorLock Gold reagent (Innova Biosciences) and an accelerator was added to each well. After 5 min at room temperature, 4 µL of a stabilizer was added to the mixture and then incubated for additional 30 min before taking measurement. The absorbance at 620nm was measured by using an Infinite® 200 PRO multimode microplate reader. The same procedure was used to measure ATPase activity of Hsp90 except concentrations of protein (1 µg) and ATP (1 mM).
Supplementary Figure S10. Inhibitory effect of hybrid molecules on Hsp70, Hsp90 and Abl activities. (a) ATPase activity of Hsp70 was measured by using a Pi-Colorlock assay after incubation of an ATPase domain of Hsp70 with various concentrations of indicated molecules and 10 µM ATP (mean ± s.d., n =3). (b) ATPase activity of Hsp90 was measured by using a Pi-Colorlock assay after incubation of Hsp90 with various concentrations of indicated molecules and 1 mM ATP (mean ± s.d., n = 3). (c) Abl kinase activity was measured by using a radiometric kinase assay after incubation of Abl with a peptide substrate in the presence of various concentrations of indicated molecules and γ-^33P-ATP (mean ± s.d., n =3).

The subject of data set [10] is HL-60 and K562 cells. Put plainly: Flow cytometry, fluorescein-annexin V and PI staining. It counts as cell-based, human. As to conditions: 24 h; 10 µM Az, 10 µM GD or 4 µM Az-O3-GD. On the procedure:
To determine whether Az promotes leukemia cell death via apoptosis, acute leukemia HL-60 and chronic leukemia K562 cells were independently incubated with Az. The treated cells were then exposed to a mixed solution of fluorescein-annexin V and propidium iodide (PI) and flow cytometry analysis was conducted. […] The size of the treated cells was also assessed by using flow cytometry. […] We also investigated if the mitochondrial membrane potential in cells treated with Az is disrupted. To test this possibility, HL-60 and K562 cells were exposed to Az and subsequently stained with a membrane potential sensitive JC-1 probe. […] This serves as another evidence for apoptosis induced by Az.
HL-60 and K562 cells were incubated with each compound for 24 h in culture media. Cells were re-suspended with 500 μL binding buffer (10 mM HEPES, […] and 2.5 mM CaCl2, pH 7.5) and then incubated with the FITC-annexin V apoptosis detection kit with PI according to the protocol provided by the manufacturer. Flow cytometry was carried out by using a BD FACSVerse™ instrument (BD Biosciences) and the data were analyzed by using a FlowJo™ software (BD Biosciences).
Background: In flow cytometry, cells or beads pass a laser one at a time.

Bounds are passed on as bounds.

T2 sequence (P0DMV8 2-386 limits assumed): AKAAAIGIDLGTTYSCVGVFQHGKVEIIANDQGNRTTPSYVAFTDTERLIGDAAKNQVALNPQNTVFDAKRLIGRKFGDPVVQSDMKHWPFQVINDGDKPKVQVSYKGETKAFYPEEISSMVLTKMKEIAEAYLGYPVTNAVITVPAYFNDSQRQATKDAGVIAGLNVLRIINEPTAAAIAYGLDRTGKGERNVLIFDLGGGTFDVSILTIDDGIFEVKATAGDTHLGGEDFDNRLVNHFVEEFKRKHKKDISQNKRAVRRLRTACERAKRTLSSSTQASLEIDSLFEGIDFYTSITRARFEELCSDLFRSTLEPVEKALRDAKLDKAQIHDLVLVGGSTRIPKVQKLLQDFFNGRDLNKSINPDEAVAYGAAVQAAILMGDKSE
T1 sequence (P00519 whole entry): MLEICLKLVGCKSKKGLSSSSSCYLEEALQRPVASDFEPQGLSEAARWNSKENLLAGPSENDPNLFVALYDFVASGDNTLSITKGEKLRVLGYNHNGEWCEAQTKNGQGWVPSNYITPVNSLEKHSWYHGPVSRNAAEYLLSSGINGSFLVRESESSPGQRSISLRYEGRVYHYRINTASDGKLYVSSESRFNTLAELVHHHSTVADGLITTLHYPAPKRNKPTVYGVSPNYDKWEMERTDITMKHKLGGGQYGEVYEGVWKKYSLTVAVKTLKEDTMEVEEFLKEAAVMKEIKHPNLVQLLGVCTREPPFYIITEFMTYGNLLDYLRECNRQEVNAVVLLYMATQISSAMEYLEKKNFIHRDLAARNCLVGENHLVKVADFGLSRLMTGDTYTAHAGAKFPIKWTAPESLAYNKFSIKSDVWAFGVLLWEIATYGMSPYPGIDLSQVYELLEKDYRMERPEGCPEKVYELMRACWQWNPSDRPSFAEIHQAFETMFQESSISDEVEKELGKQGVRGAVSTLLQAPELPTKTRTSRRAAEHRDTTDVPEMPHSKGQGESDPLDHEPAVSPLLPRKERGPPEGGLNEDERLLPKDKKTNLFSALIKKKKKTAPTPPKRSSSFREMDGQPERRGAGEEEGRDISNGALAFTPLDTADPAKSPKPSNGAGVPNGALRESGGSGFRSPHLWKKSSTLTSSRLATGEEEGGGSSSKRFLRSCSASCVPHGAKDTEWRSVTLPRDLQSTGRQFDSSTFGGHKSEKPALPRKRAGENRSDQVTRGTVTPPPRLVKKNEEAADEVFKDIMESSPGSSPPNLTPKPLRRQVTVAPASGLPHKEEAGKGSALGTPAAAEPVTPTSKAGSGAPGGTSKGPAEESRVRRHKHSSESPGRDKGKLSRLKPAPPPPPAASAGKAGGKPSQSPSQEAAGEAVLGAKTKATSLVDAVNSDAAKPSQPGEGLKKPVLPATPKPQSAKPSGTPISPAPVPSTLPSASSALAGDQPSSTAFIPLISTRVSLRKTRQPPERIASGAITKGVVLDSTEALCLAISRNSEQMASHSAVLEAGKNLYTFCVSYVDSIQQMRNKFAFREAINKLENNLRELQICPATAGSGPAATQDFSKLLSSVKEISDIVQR

Broadly, the IC50 is the midpoint of a concentration-inhibition curve. For the compound `COc1ccc(-c2nc(-c3cc(C(F)(F)F)cc(C(F)(F)F)c3)n(Cc3ccc(C(=O)NCCOCCOCCOCCN4CCN(Cc5ccc(C(=O)Nc6ccc(C)c(Nc7nccc(-c8cccnc8)n7)c6)cc5)CC4)cc3)c2-c2ccc(OC)cc2)cc1` [Az-O3-Imatinib], the half-inhibitory concentration (IC50) in data set [1] is > 10 µM; in [2], > 10 µM; in data set [3], > 10 µM; in data set [5], > 10 µM; in data set [6], > 10 µM; in [7] it was 4.3 ± 0.91 µM. The “inhibitory activity towards Abl kinase” value in [4] is “significantly reduced inhibitory activities towards Abl kinase compared to imatinib”. Further, in [8], the “cytotoxicity relative to the individual inhibitors” value is on record as “poorer cytotoxicity”. Further, the “inhibition of the ATPase activity of Hsp70” value (shortened to “inhibition”) in data set [9] is reported as “much weaker inhibitors of Hsp70 compared to Az”.

Regarding `COC1=C2C[C@@H](C)C[C@H](OC)[C@H](O)[C@@H](C)/C=C(\C)[C@H](OC(N)=O)[C@@H](OC)/C=C\C=C(/C)C(=O)NC(=CC1=O)C2=O` [GD, geldanamycin, reference compound], the IC50 in data set [1] was determined as 3.2 ± 1.21 µM; in data set [2] it was 0.9 ± 0.33 µM; in data set [3], 2.3 ± 0.74 µM; in [5] it was 4.8 ± 1.06 µM; in [6] it was 4.8 ± 1.22 µM; in [7], 3.7 ± 1.11 µM. In addition, the “apoptosis, annexin V binding and PI uptake” value in [10] is recorded as “induces apoptosis”.

Regarding `COc1ccc(-c2nc(-c3cc(C(F)(F)F)cc(C(F)(F)F)c3)n(Cc3ccc(C(=O)NCCOCCOCCNC4=C5C[C@@H](C)C[C@H](OC)[C@H](O)[C@@H](C)/C=C(\C)[C@H](OC(N)=O)[C@@H](OC)/C=C\C=C(/C)C(=O)NC(=CC4=O)C5=O)cc3)c2-c2ccc(OC)cc2)cc1` [Az-GD], the 50% inhibitory concentration (IC50) in data set [1] was found to be 0.91 ± 0.41 µM; in [2] it was 0.36 ± 0.12 µM; in [3], 0.73 ± 0.22 µM; in data set [5], 0.89 ± 0.25 µM; in data set [6], 1.12 ± 0.32 µM; in data set [7], 0.63 ± 0.21 µM. For the same compound, the “cytotoxicity relative to the individual inhibitors” value in [8] was “greatly enhanced cytotoxicities”.

In the case of `COc1ccc(-c2nc(-c3cc(C(F)(F)F)cc(C(F)(F)F)c3)n(Cc3ccc(C(=O)NCCOCCOCCOCCOCCN4CCN(Cc5ccc(C(=O)Nc6ccc(C)c(Nc7nccc(-c8cccnc8)n7)c6)cc5)CC4)cc3)c2-c2ccc(OC)cc2)cc1` [Az-O4-Imatinib], the 50% inhibitory concentration (IC50) was > 10 µM in data set [1]; > 10 µM in data set [2]; > 10 µM in data set [3]; > 10 µM in data set [5]; > 10 µM in data set [6]; 4.5 ± 0.88 µM in [7]. Further, in data set [4], the “inhibitory activity towards Abl kinase” value is “significantly reduced inhibitory activities towards Abl kinase compared to imatinib”. Besides, in [8], the “cytotoxicity relative to the individual inhibitors” value is “poorer cytotoxicity”. Besides, the “inhibition” value in data set [9] is “much weaker inhibitors of Hsp70 compared to Az”.

As for `COc1ccc(-c2nc(-c3cc(C(F)(F)F)cc(C(F)(F)F)c3)n(Cc3ccc(C(=O)NCCOCCOCCNC(=O)COCCOCCOCCNC4=C5C[C@@H](C)C[C@H](OC)[C@H](O)[C@@H](C)/C=C(\C)[C@H](OC(N)=O)[C@@H](OC)/C=C\C=C(/C)C(=O)NC(=CC4=O)C5=O)cc3)c2-c2ccc(OC)cc2)cc1` [Az-amide-GD], in [8], the “cytotoxicity relative to the individual inhibitors” value is “poorer cytotoxicity”. Besides, in [9], the “inhibition” value was “lower inhibitory activity towards Hsp70 than Az”.

The record behind these values is PMC5471252, “Anti-leukemia activity of a Hsp70 inhibitor and its hybrid molecules” (Scientific Reports, 2017).
